What all share (format): physicochemical
The nature of data set [1]: Hygroscopicity evaluation (isotherm adsorption curve). The following applies: 25° C., relative humidity in the range of 5% to 70%. On the procedure: The isotherm adsorption curve was measured under the following conditions. Ditosylate, monoacetate and pentahydrate of Compound A were measured under Condition 1, and besylate of […] was measured under Condition 2.
Measurement temperature: 25° C.
Measurement range: Relative humidity of 5 to 95%
Measurement interval: Relative humidity of 5%
Measurement range: Relative humidity of 0 to 95%

A short description of data set [2]: Chemical stability test: residual rate measurement by HPLC after storage. The conditions noted are these: for Residual rate (%): versus sample stored at −20° C. The protocol: The chemical stability of crystals of ditosylate, dibesylate, pentahydrate and monoacetate of Compound A was measured by the following method and conditions.
About 1.5 to 3 mg of a test compound was weighed in a lab tube and stored under the following conditions.
After storage, the residual rate (%) of the stored sample under each condition was calculated by HPLC based on the area percentage of main medicine of the sample stored at −20° C. In addition, appearance was visually observed and compared with the sample stored at −20° C. […]
Comparison object of each sample was stored at −20° C.
An evaluation sample (0.8 mg) was dissolved in a mixed solution of acetonitrile/100 mM NaClO4 […] about 0.8 mL (sample concentration: 1.0 mg/mL) acetonitrile/100 mmol/L NaClO4 aq. (pH3.0) (3/1) to prepare a solution of 1.0 mg/mL (concentration as salt).
Detector: Ultraviolet absorptiometer (measurement wavelength: 265 nm)
Column: SPELCO Ascentis Express (150 mm×4.6 mm, S-2.7 μm)
Column temperature: 25° C.
Mobile phase: Solution A: 100 mmol/L NaClO4 aq. (pH 3.0), Solution B: acetonitrile
Area measurement range: 34.6 minutes

Data set [3] can be described thus: Physical stability: powder X-ray measurement before and after storage. The following applies: 25° C.-60% RH, 2 months. The protocol: The physical stability of monoacetate and ditosylate of Compound A was measured by the following method and conditions.
Test compounds were respectively weighed in a lab tube at about 20 mg for monoacetate and about 40 mg for ditosylate, and stored under the following conditions.
Device: D8 DISCOVER with GADDS manufactured by BRUKER axs

Where [4] appears, read: crystals stored at 40° C.-75% RH (opened) for 2 months.
The mark [5] stands for this setting: crystals stored at 60° C. for 1 month.
The mark [6] stands for this setting: crystals stored at 40° C. for 2 months.

With `CS(=O)(=O)N1CCN([C@H]2C[C@@H](C(=O)Nc3ccc(C(=O)O)cc3)N(C(=O)c3ccc(C(=N)N)cc3)C2)CC1.O=S(=O)(O)c1ccccc1` [Dibesylate, 4-({(4S)-1-(4-Carbamimidoylbenzoyl)-4-[4-(methylsulfonyl)piperazin-1-yl]-L-prolyl}amino) benzoic acid dibenzenesulfonate], the weight gain in data set [1] is reported as 1.9 wt %. The “Residual rate (%)” value in data set [2] (setting [4]) is 99.5%; in data set [2] (setting [5]), 100%.

`CS(=O)(=O)N1CCN([C@H]2C[C@@H](C(=O)Nc3ccc(C(=O)O)cc3)N(C(=O)c3ccc(C(=N)N)cc3)C2)CC1.Cc1ccc(S(=O)(=O)O)cc1` [Ditosylate, 4-({(4S)-1-(4-Carbamimidoylbenzoyl)-4-[4-(methylsulfonyl)piperazin-1-yl]-L-prolyl}amino) benzoic acid di(4-toluenesulfonate)] displayed a weight gain in data set [1] of 1.5 wt %. For the same compound, the “Residual rate (%)” value in data set [2] (setting [6]) was determined as 100%; in data set [2] (setting [4]), 99.3%; in data set [2] (setting [5]), 100%. The “change of powder X-ray diffraction spectrum before and after storage” value in data set [3] is reported as “no significant peak change was recognized”.

Consider `CS(=O)(=O)N1CCN([C@H]2C[C@@H](C(=O)Nc3ccc(C(=O)O)cc3)N(C(=O)c3ccc(C(=N)N)cc3)C2)CC1` [Monoacetate, 4-({(4S)-1-(4-Carbamimidoylbenzoyl)-4-[4-(methylsulfonyl)piperazin-1-yl]-L-prolyl}amino) benzoic acid monoacetate], for which the weight gain in data set [1] (listed as monoacetate of Compound A, monoacetate) was 6.4 wt %. The “Residual rate (%)” value in data set [2] (crystals stored at 40° C. for 2 months, monoacetate) came out at 99%; in data set [2] (crystals stored at 40° C.-75% RH (opened) for 2 months, monoacetate), 95%; in data set [2] (crystals stored at 60° C. for 1 month, monoacetate), 97.5%. The “change of powder X-ray diffraction spectrum before and after storage” value in data set [3] is listed as “change in the spectra was recognized”.

The compound `CS(=O)(=O)N1CCN([C@H]2C[C@@H](C(=O)Nc3ccc(C(=O)O)cc3)N(C(=O)c3ccc(C(=N)N)cc3)C2)CC1` [Pentahydrate, 4-({(4S)-1-(4-Carbamimidoylbenzoyl)-4-[4-(methylsulfonyl)piperazin-1-yl]-L-prolyl}amino) benzoic acid pentahydrate] yielded a weight gain in data set [1] (listed as pentahydrate of Compound A) of 12.2 wt %. The “Residual rate (%)” value was 36.3% in data set [2] (setting [6]), 37% in data set [2] (setting [4]) and 23.1% in data set [2] (setting [5]). In addition, in data set [2] (under the conditions of 40° C.-75%), the “residual rate” value is reported as “reduced residual rate”.
